From publication PMC8820820, “Feasibility and safety of targeting mitochondria for cancer therapy – preclinical characterization of gamitrinib, a first-in-class, mitochondriaL-targeted small molecule Hsp90 inhibitor” (Cancer Biology & Therapy, 2022)

Legend:
[1] = Bidirectional Caco2 cell monolayer permeability; settings: human
Protocol: Caco-2 and HEK293 cells were obtained from the American Type Culture Collection (ATCC, Manassas, VA) and grown in culture according to the supplier’s specifications. In some experiments, HEK293 cells were stably transfected with hERG cDNA, and polyclonal cultures were maintained in the presence of 250 µg/ml geneticin (G418).
Bidirectional Caco2 cell monolayer permeability. Caco2 cells (2x10^4/well) were seeded onto apical chambers of a 24-multiwell insert plate and incubated at 37°C in 5% CO2. After 21 d, the transepithelial electrical resistance (TEER) in ohms was read for each insert well as a quality control for monolayer integrity (>900 ohms or 300 ohms cm^2). The cell monolayers were incubated with 400 µL transport buffer on the apical (A) and 1.2 mL on the basolateral (B) sides for 30 min. After preincubation, dosing solution was added to the apical (400 µL, A-to-B, donor) or basolateral sides (1.2 mL, B-to-A, donor) or receiving buffer to the apical (400 µL, B-to-A, receiver) or basolateral sides (1.2 mL, A-to-B, receiver) for 90 min at 37°C in 5% CO2. […] Papp’A>B (nm/s) was calculated with Equation 1.
Papp Efflux Ratio (ER) was calculated with Equation 2.
ER=Papp,B>APapp,A>BEquation 2: […]
Propranolol (high permeability marker, non-P-gp substate) and digoxin (P-gp substrate) were used as controls.

in vitro = settings: human
[2] = Gamitrinib pharmacokinetics in rat plasma, single IV dose; type: in vivo, Sprague-Dawley rats; settings: after IV Gamitrinib 5 mg/kg
Protocol: Sprague-Dawley rats (n = 3) were administered with a single intravenous (IV) dose of 1 mL Gamitrinib (5 mg/kg) formulated as described above without added microfluidization. Blood samples were collected via lateral tail vein using K2EDTA as an anticoagulant at 0.083, 0.25, 0.5, 1, 2, 4, and 24 h post-dose, chilled on ice, and centrifuged at 5000 rpm for 10 min. Aliquots (0.2 mL) of each plasma sample were stored frozen at −20°C. For analysis, 50 µL aliquots of the study samples were mixed with 50 µL of ACN/H2O (50:50), extracted by protein precipitation using ACN containing the internal standard Gamitrinib-d15 (100 ng/mL), and the aliquots of the supernatant were mixed with deionized water for Gamitrinib determination. Batch samples under analysis included a calibration curve, a matrix blank (blank rat plasma), a reagent blank, a control zero (blank rat plasma spiked with internal standard), and duplicate QC samples at three concentration levels (low, medium, and high) in addition to the study samples. Within each batch, the study samples were bracketed by calibration standards or QC samples. The lowest calibration standard served to evaluate system suitability at the beginning of each batch. […] Overall, the concentration of Gamitrinib was measured in 21 rat plasma samples in 1 analytical batch using LC-MS/MS data acquisition on a Shimadzu Nexera LC system coupled with an AB Sciex Triple Quad 5500 mass spectrometer. Chromatograms were integrated using Analyst 1.6.2 software. A weighted (1/x^2, x = concentration) linear regression was used to generate the calibration curve for Gamitrinib. […] The mean, standard deviation, precision, accuracy, and assay variability were calculated using Microsoft Excel.

[3] = Phase I, cytochrome P450-mediated human liver microsome metabolism
[4] = Caco-2, Papp Efflux Ratio (ER), Papp,B>A / Papp,A>B
[5] = Caco-2, Papp, A>B, Caco2 monolayer, apical to basolateral
[6] = Caco-2, Papp, B>A, Caco2 monolayer, basolateral to apical
[7] = Caco-2, Pexact Efflux Ratio, Caco2 monolayer
[8] = Caco-2, Pexact,A>B, Caco2 monolayer
[9] = Caco-2, Pexact,B>A, Caco2 monolayer

Compound `C[C@H]1O[C@@H](O[C@H]2[C@@H](O)C[C@H](O[C@H]3[C@@H](O)C[C@H](O[C@H]4CC[C@@]5(C)[C@H](CC[C@@H]6[C@@H]5C[C@@H](O)[C@]5(C)[C@@H](C7=CC(=O)OC7)CC[C@]65O)C4)O[C@@H]3C)O[C@@H]2C)C[C@H](O)[C@@H]1O` [Digoxin] has an efflux ratio at 90 min [1, 4] of 21, a Papp A→B at 90 min [1, 5] of 0.547 ×10⁻⁶ cm/s and a Papp B→A at 90 min [1, 6] of 11.5 ×10⁻⁶ cm/s. The efflux ratio at 90 min [1, 7] was 21.2, the Papp A→B at 90 min [1, 8] was 0.413 ×10⁻⁶ cm/s and the Papp B→A at 90 min [1, 9] was 8.76 ×10⁻⁶ cm/s.
Work on `CC(C)NCC(O)COc1cccc2ccccc12` (stereo not shown) [Propranolol] yielded an efflux ratio at 90 min [1, 4] of 0.87, a Papp A→B at 90 min [1, 5] of 18.6 ×10⁻⁶ cm/s and a Papp B→A at 90 min [1, 6] of 16.2 ×10⁻⁶ cm/s. For the same compound, the efflux ratio at 90 min [1, 7] was 0.81, the Papp A→B at 90 min [1, 8] was 20.9 ×10⁻⁶ cm/s and the Papp B→A at 90 min [1, 9] was 17 ×10⁻⁶ cm/s.
With `CC(=O)CC(c1ccccc1)c1c(O)c2ccccc2oc1=O` (stereo not shown) [warfarin] the recovery at 4 h, 2 µg/mL (in vitro) was 88.3 ± 2.9%.
With `CO[C@H]1/C=C\C=C(/C)C(=O)NC2=CC(=O)C(N)=C(C[C@@H](C)C[C@H](OC)[C@H](O)[C@@H](C)/C=C(\C)[C@@H]1OC(N)=O)C2=O` [17-AG, 17-(amino)-17-demethoxygeldanamycin] the 17-AG plasma concentration ([2]; animal 1, 5 min) was “BLOQ”, the 17-AG plasma concentration ([2]; animal 1, 15 min) was 0.561 ng/mL and the 17-AG plasma concentration ([2]; animal 1, 30 min) was “BLOQ”. The 17-AG plasma concentration ([2]; animal 1, 60 min) was “BLOQ”, the 17-AG plasma concentration ([2]; animal 1, 120 min) was “BLOQ” and the 17-AG plasma concentration ([2]; animal 1, 240 min) was “BLOQ”. For the same compound, the 17-AG plasma concentration ([2]; animal 1, 1440 min) was “BLOQ”, the 17-AG plasma concentration ([2]; animal 2, 5 min) was 1.519 ng/mL and the 17-AG plasma concentration ([2]; animal 2, 15 min) was “BLOQ”. For the same compound, the 17-AG plasma concentration ([2]; animal 2, 30 min) was “BLOQ”, the 17-AG plasma concentration ([2]; animal 2, 60 min) was “BLOQ” and the 17-AG plasma concentration ([2]; animal 2, 120 min) was “BLOQ”. The 17-AG plasma concentration ([2]; animal 2, 240 min) was “BLOQ”, the 17-AG plasma concentration ([2]; animal 2, 1440 min) was “BLOQ” and the 17-AG plasma concentration ([2]; animal 3, 5 min) was 1.113 ng/mL. The 17-AG plasma concentration ([2]; animal 3, 15 min) was “BLOQ”, the 17-AG plasma concentration ([2]; animal 3, 30 min) was “BLOQ” and the 17-AG plasma concentration ([2]; animal 3, 60 min) was “BLOQ”. For the same compound, the 17-AG plasma concentration ([2]; animal 3, 120 min) was “BLOQ”, the 17-AG plasma concentration ([2]; animal 3, 240 min) was “BLOQ” and the 17-AG plasma concentration ([2]; animal 3, 1440 min) was “BLOQ”.
For `Cc1ncc2n1-c1ccc(Cl)cc1C(c1ccccc1F)=NC2` [Midazolam, reference compound], the “elimination rate constant (k)” value ([3]; 0.5 µM, human liver microsomes) was 0.04, the “intrinsic clearance (CLint)” value ([3]; 0.5 µM, human liver microsomes) was 3.23 mL/min/g and the half-life at 0.5 µM ([3]; human, liver microsomes) was 17 min.
